From patent publication US10604523B2, “1-aryl-4-methyl-[1,2,4]triazolo[4,3-a]quinoxaline derivatives” (Janssen Pharmaceutica NV, priority 2011, dated 2020)
Where two headings read alike, the source gives them in different places.

Tests used:
[1] = target: T1, Rat recombinant PDE10A (rPDE10A2) (Rattus norvegicus, UniProt Q9QYJ6); assay: In vitro assay PDE10A (SPA, 3H-cAMP); format: biochemical; settings: -log IC50 expressed in mol/L; rPDE10A2, 60 nM cAMP
T1 construct: made in house; host or cells: Sf9 insect cells (baculovirus)
T1 sequence (Q9QYJ6 1-794): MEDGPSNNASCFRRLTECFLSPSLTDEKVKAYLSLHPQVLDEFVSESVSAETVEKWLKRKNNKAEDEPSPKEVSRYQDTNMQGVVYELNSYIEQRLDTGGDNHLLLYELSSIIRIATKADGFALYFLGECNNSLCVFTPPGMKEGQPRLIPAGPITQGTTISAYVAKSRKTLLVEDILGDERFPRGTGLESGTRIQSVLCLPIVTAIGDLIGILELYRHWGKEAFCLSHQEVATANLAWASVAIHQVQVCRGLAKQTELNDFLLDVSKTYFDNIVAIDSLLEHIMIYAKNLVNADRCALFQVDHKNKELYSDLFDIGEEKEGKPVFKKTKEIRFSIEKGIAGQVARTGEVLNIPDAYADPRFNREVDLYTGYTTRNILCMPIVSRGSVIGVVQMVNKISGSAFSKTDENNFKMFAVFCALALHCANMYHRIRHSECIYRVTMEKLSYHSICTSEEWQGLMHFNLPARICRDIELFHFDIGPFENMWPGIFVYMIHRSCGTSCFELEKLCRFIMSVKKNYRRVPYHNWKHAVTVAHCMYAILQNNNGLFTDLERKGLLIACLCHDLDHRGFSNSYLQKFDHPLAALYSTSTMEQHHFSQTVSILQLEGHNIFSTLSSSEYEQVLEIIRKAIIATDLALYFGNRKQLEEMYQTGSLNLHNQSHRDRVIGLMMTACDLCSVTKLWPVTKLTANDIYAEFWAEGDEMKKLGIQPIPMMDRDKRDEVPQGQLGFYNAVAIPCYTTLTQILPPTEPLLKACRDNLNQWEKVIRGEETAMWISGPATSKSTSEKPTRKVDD

[2] = tested on: cAMP and cGMP levels in the rat brain (hippocampus and striatum); assay: Effect of PDE-inhibitors ex-vivo studies in rat: cAMP and cGMP levels in brain; settings: 10 mg/kg s.c., -1 h
Description: Upon arrival, the animals (body weight 210-240 g) were housed in groups of 5 and fed normal chow at libitum.
Compounds and/or solvent were administered either orally, subcutaneously or IV. […] After microwave, the rats were decapitated and the heads cooled immediately with ice cold physiological saline. […] 10 vol (w/v) of 0.1N HCl were added. The tissue was homogenized for 3 min at 30 Hz using a Tissuelyser from Qiagen.
The homogenate was transferred into an Eppendorf tube (1.5 ml) and after centrifugation for 15 min at 1600 g in a pre-cooled (4C) Eppendorf centrifuge, the supernatant was collected and stored at −80° C. until analysis.
The cAMP and cGMP levels were measured in the rat brain (hippocampus and striatum) to establish in vivo target engagement and central pharmacological effect of PDE2 inhibition.

[3] = Brain radiometabolite analysis of [18F]B-23; format: in vivo, rat
Description: (§1) The metabolic stability of the tracer was studied in normal rats by determination of the relative amounts of parent tracer and radiometabolites in plasma and brain at 2 min and 10 min p.i. of the tracer. […] (n=1), blood was collected in lithium heparin containing tubes (4.5 mL LH PST tubes; BD vacutainer, BD, Franklin Lakes, USA) and stored on ice. Brain was dissected and rinsed with saline (decapitation was preferred since it was difficult to have the rat perfused already at 2 min p.i.). For the 10 min timepoint, rats (n=1) were injected with about 37 MBq of tracer and sacrificed at 10 min p.i by administering an overdose of Nembutal (CEVA Sante Animale, 200 mg/kg intraperitoneal). The rats were perfused by injection of saline into the left ventricle until the liver turned pale. During perfusion, blood was collected and stored on ice. Brain was isolated.
For the brain radiometabolite analysis, cerebrum and cerebellum were separated and homogenized in 3 mL and 2 mL of acetonitrile respectively, for about 3 min. A volume of 1 mL of this homogenate was diluted with an equal volume of water and 1 mL of the supernatant was filtered through a 0.22 μm filter (Millipore, Bedford, USA). About 0.5 mL of the filtrate was diluted with 0.1 mL of water and spiked with 10 μL of authentic reference material (1 mg/mL) for identification. A volume of 0.5 mL of the homogenate extracts were injected onto an HPLC system consisting of an analytical XBridge column (C18, 3.5 μm, 3 mm×100 mm, Waters) eluted with a mixture of 0.05 M sodium acetate (pH 5.5) and CH3CN (76:24 v/v) at a flow rate of 0.8 mL/min. The HPLC eluate was collected as 0.8-mL fractions (fraction collection per minute) after passing through the UV detector (254 nm), and radioactivity in the fractions was measured using an automated gamma counter. The peak corresponding to the intact tracer eluted around 10 min, the polar radiometabolite(s) around 5 min.

[4] = Plasma radiometabolite analysis of [18F]B-23; format: in vivo, rat; settings: for recovered radioactivity present as intact tracer in plasma: n=1
Description: as §1
For the plasma radiometabolite analysis, the blood was centrifugated for 10 min at 3000 rpm to separate the plasma. A volume of about 0.1 mL of plasma sample was isolated and spiked with about 10 μL of authentic non-radioactive reference material (1 mg/mL) for identification. The plasma was then injected onto an HPLC system consisting of a Chromolith Performance column (C18, 3 mm×100 mm, Merck) that was eluted with mixtures of 0.05 M NaOAc pH 5.5 (solvent A) and acetonitrile (solvent B). The following method was used for the analysis: isocratic elution with 100% A for 4 min at a flow rate of 0.5 mL/min, then linear gradient to 90% B by 14 min at a flow rate of 1 mL/min, and isocratic elution with a mixture of 10% A and 90% B at a flow rate of 1 mL/min until 17 min. After passing through an in-line UV detector (254 nm) and over a 3 in. NaI(Tl) scintillation detector connected to a single channel analyzer (Gabi box, Raytest, Straubenhardt Germany), the HPLC eluate was collected per minute using an automatic fraction collector. The radioactivity in all fractions was measured using an automated gamma counter. The peak corresponding to the intact tracer eluted at ˜11 min. Polar radiometabolite(s) were eluting from 1 to 3 min. Slightly more polar radiometabolites (relatively to the polarity of the intact tracer) were eluting just before the intact tracer. Faster metabolisation is observed in plasma compared to brain. At 2 min p.i., about 70% of the recovered radioactivity was present as intact tracer. Two more polar radiometabolites (M1, M3) were observed of which one (M3) was closely eluting to the intact tracer. At 10 min p.i., the presence of a large amount of a third polar metabolite (M2, also closely eluting to the parent compound) was observed which accounted for about 60% of the recovered radioactivity. At 10 min p.i., only ˜20% of the recovered radioactivity was still present as intact tracer.

[5] = male, Wistar, rat, in vivo
Description: (§2) The biodistribution study was carried out in male Wistar rats (body weight 320-370 g) at 2 min, 10 min and 30 min post injection (p.i.) (n=3/time point). […] Blood and major organs were collected in tared tubes and weighed. The radioactivity in blood, organs and other body parts was measured using an automated gamma counter. The distribution of radioactivity in different parts of the body at different time points p.i. of the tracer was calculated and expressed as percentage of injected dose (% ID), and as standardized uptake values (SUV) for the selected organs. % ID is calculated as counts per minute (cpm) in organ/total cpm recovered. SUVs are calculated as (radioactivity in cpm in organ/weight of the organ in g)/(total counts recovered/body weight in g). For calculation of total radioactivity in blood, blood mass was assumed to be 7% of the body mass.

[6] = Biodistribution study of [18F]B-23; settings: mean ± SD, n = 3
Description: as §2

CCCCOc1cncc(-c2nnc3c(C)nc4ccc(CN(C)C)cc4n23)c1 [Compound B-197]
PIC50 PDE10 [1]: 5.03
Hippocampus cAMP (% of Control) [2]: 122 ± 10 % of Control
Hippocampus cGMP (% of Control) [2]: 104 ± 32 % of Control
Striatum cAMP (% of Control) [2]: 89 ± 6 % of Control
Striatum cGMP (% of Control) [2]: 128 ± 26 % of Control

Cc1nc2ccc(CN3CCOCC3)cc2n2c(-c3c([18F])cccc3Cl)nnc12 [[^18F]B-23, 1-(2-Chloro-6-[^18F]fluorophenyl)-4-methyl-8-(morpholin-4-ylmethyl)[1,2,4]triazolo[4,3-a]quinoxaline]
apolar radiometabolites in brain ([3]; 2 and 10 min p.i.): No apolar radiometabolites were detected
intact tracer in cerebrum and cerebellum ([3]; 2 min p.i., n=1): almost all of the recovered radioactivity in cerebrum and in cerebellum was present as intact tracer
% of intact tracer in cerebellum ([3]; 10 min p.i., n=1): 82%
apolar radiometabolites in plasma ([4]; 2 and 10 min p.i.): No apolar radiometabolites were detected
recovered radioactivity present as intact tracer in plasma ([4]; 2 min p.i.): about 70%
recovered radioactivity present as intact tracer in plasma ([4]; 10 min p.i.): ~20%
% of the ID in the cerebellum ([5]; 2 min): ~0.1%
% of the ID in the cerebrum ([5]; 2 min): ~1.0%
% of the injected dose present in the blood ([5]; 2 min): about 6.7%
total brain uptake of the tracer (% ID) ([5]; 2 min): ~1.2%
% ID in the brain ([5]; 10 min): 0.2%
% ID in the brain ([5]; 30 min): 0.1 % ID
% ID in the urine and the kidneys ([5]; 30 min): 19 % ID
% of ID present in the liver and intestines ([5]; 30 min): 49%
% of the injected dose present in the blood ([5]; 30 min): 4.1%
SUV Blood ([6]; 2 min p.i.): 0.96 ± 0.05
SUV Cerebellum ([6]; 2 min p.i.): 1.22 ± 0.23
SUV Cortex ([6]; 2 min p.i.): 2.36 ± 0.48
SUV Hippocampus ([6]; 2 min p.i.): 1.87 ± 0.22
SUV Rest of cerebrum ([6]; 2 min p.i.): 2.63 ± 0.41
SUV Striatum ([6]; 2 min p.i.): 4.36 ± 0.42
SUV Blood ([6]; 10 min p.i.): 0.90 ± 0.08
SUV Cerebellum ([6]; 10 min p.i.): 0.27 ± 0.02
SUV Cortex ([6]; 10 min p.i.): 0.53 ± 0.02
SUV Hippocampus ([6]; 10 min p.i.): 0.33 ± 0.04
SUV Rest of cerebrum ([6]; 10 min p.i.): 0.57 ± 0.02
SUV Striatum ([6]; 10 min p.i.): 1.77 ± 0.08
SUV Blood ([6]; 30 min p.i.): 0.59 ± 0.08
SUV Cerebellum ([6]; 30 min p.i.): 0.12 ± 0.04
SUV Cortex ([6]; 30 min p.i.): 0.15 ± 0.04
SUV Hippocampus ([6]; 30 min p.i.): 0.14 ± 0.04
SUV Rest of cerebrum ([6]; 30 min p.i.): 0.22 ± 0.08
SUV Striatum ([6]; 30 min p.i.): 0.61 ± 0.20
